Measurements published in patent US8507290B2, “Water-soluble silsesquioxanes as organic quantum dots for sensing and imaging” (National University of Singapore, priority 2009, dated 2013).

Columns and labels:
dsDNA and RNA = conditions: cited from earlier work
[1] = test system: breast cancer cells (MCF-7); assay: One-photon and two-photon fluorescent cellular nucleus imaging (CLSM); assay type: cell-based; conditions: 2 h, signals above 560 nm
Procedure: One-photon and two-photon fluorescence images of the MCF-7 cells were then obtained.
OPEF imaging was obtained by excitation of the cells at 488 nm and collection of fluorescence above 560 nm under the fixed parameters. […] As nucleolus is the site of ribosomal RNA synthesis, it has the highest concentration of RNA in nucleus.
For TPEF imaging, the dye concentrations are fixed at 1 μM, and the cellular images were acquired by excitation of the cells at near-infrared wavelength (760 nm) and collection of signals above 560 nm.

| Compound | light-up response toward dsDNA and RNA (commercial dyes) (dsDNA and RNA) | two-photon fluorescence (TPEF) imaging of nucleus ([1]; MCF-7, 1 μM dye, excitation at 760 nm) | one-photon fluorescence (OPEF) imaging: uptake and localisation ([1]; MCF-7, dye 1 μM (also 0.1 and 0.02 μM), excitation at 488 nm) |
| --- | --- | --- | --- |
| SYTO 9 | nearly equal light-up responses toward dsDNA and RNA |  |  |
| CCCN(CCCN(C)C)c1cc(/C=C2/Sc3ccccc3N2C)c2ccccc2[n+]1-c1ccccc1 [SG, SYBR Green I] | only shows strong light-up response toward dsDNA | does not provide a clear cellular image | homogenously-stained nucleus pattern |
